# According to patent publication US6835382B2, “Ii peptide therapeutics to enhance antigen presentation” (University of Massachusetts, priority 1996, dated 2004):
# No end group written: not given here.
# How the values were obtained:
# [1] = tested on: HLA-DR1 molecules; assay: release of biotin-labeled hMBP(90-102) from HLA-DR1 in the presence of unlabeled hMBP (assay II); type: binding, human; conditions: Table 37, unlabeled hMBP(90-102) 250 μM
# [2] = target: T1, HLA-DR1 molecules (Homo sapiens, UniProt P01903+P01911, A100R/D57E/F55L/F60I/F76Y/I96L/L162R/M171V/P40L/Q125E/R42F/V115G/Y59C); assay: binding of biotin-labeled hMBP(90-102) to "empty" HLA-DR1 (assay IV); conditions: Table 39; AE101 series compound 64 μM; biotin-labeled hMBP(90-102) 50 μM, 37° C., 1 h; no enhancement = 1
# T1 construct: The HLA-DR alpha gene was truncated after Asn^192 to remove transmembranal and cytoplasmic regions from the protein product; A gene coding for the HLA-DR1 beta chain was truncated after position Lys^198, again to delete the transmembranal region; made in house; host or cells: insect cell line printed as HS / H5 (Invitrogen), co-infected with two baculoviruses; concentrated culture supernatant captured on 12CA5 antibody
# [3] = tested on: HLA-DR1 molecules; assay: exchange of biotinylated hMBP(90-102) into antigenic peptide-loaded HLA-DR1 (assay III); type: binding, human; conditions: Table 38; HLA-DR1 preloaded with unlabeled hMBP(90-102) 50 μM; exchange with biotin-labeled hMBP(90-102) 50 μM, 37° C., 1 h; fraction of positive control o.d.; no enhancement = 0.08
# [4] = tested on: HLA-DR1 molecules; assay: release of biotin-labeled hMBP(90-102) from HLA-DR1 without unlabeled antigenic peptide (assay I); type: binding, human; conditions: Table 37, no unlabeled hMBP(90-102)
substance,measurement,setting,value
"cyclic LRMKLPK (bridge (positions not given here); also: cyclic, ring type not given here) [AE381, “head-to-tail” cyclization from the amino-terminus to the carboxyl-terminus of AE114]","Relative Release, With unlabeled hMBP(90-102), 1 μM",[1]; AE101 series compound 1 μM,0.09
same,"Relative Release, With unlabeled hMBP(90-102), 64 μM",[1]; AE101 series compound 64 μM,−0.19
same,Relative Enhancement,[2],1.84
same,Relative Binding,[3],−0.12
same,"Relative Release, Without unlabeled hMBP(90-102), 1 μM",[4]; AE101 series compound 1 μM,0.64
same,"Relative Release, Without unlabeled hMBP(90-102), 64 μM",[4]; AE101 series compound 64 μM,0.5
